As usually defined, the IC50 is the concentration needed to halve the response being measured.

The text below walks through data of patent US9957264B2 (Merck Sharp & Dohme Corp., priority 2013, dated 2018).

The target in experiment [1] is JAK1 (recombinant purified GST-tagged catalytic domain) (Homo sapiens (Human), UniProt P23458). Nature of the experiment: Jak Biochemical HTRF Assay (JAK1). The following applies: [ATP] 31.8 μM. How it is done: (§1) Jak Biochemical HTRF Assay Protocol
The ability of compounds to inhibit the activity of JAK1, JAK2, JAK3, and Tyk2 was measured using a recombinant purified GST-tagged catalytic domain for each enzyme (Invitrogen JAK1 #M4290, JAK2 #M4290, JAK3 #M4290, Tyk2 #M4290) in an HTRF format biochemical assay. The reactions employed a common peptide substrate, LCB-[…]-NH2 (in-house). The basic assay protocol is as follows: First, 250 nL of diluted compounds in DMSO were dispensed into the wells of a dry 384-well Black plate (Greiner #781076) using a Labcyte Echo 555 acoustic dispenser. Subsequent reagent additions employed an Agilent Bravo. […] After equilibration, 2 μL of 10×ATP in 1× assay buffer was added to initiate the kinase reaction and the plates were shaken and then incubated at room temperature for 120 minutes. At the end of the incubation, 20 μL of 2× stop buffer (streptavidin-Dylight 650 (Thermo #84547B/100 mL), Eu-tagged pY20 antibody (Perkin Elmer #AD0067), EDTA, HEPES, and Triton) was added to quench the reaction. Plates were shaken and centrifuged and then incubated 60 minutes at room temperature and then read on a Perkin Elmer Envision (λex=337 nm, λem=665 and 615 nm, TRF delay time=20 μs). HTRF signal=10,000*665 nm reading/615 nm reading. After normalization to untreated controls, the percent inhibition of the HTRF signal at each compound concentration was calculated. The plot of percent inhibition versus the log of compound concentration was fit with a 4-parameter dose response equation to calculate IC50 values.
(§2) Final reaction conditions were:
Examples of the instant invention were evaluated in JAK1 and JAK2 in vitro binding assays as described above. The following table tabulates the JAK1 IC50 values and JAK2 IC50 values disclosed for the instant invention.

The target in experiment [2] is JAK2 (recombinant purified GST-tagged catalytic domain) (Homo sapiens (Human), UniProt O60674). Put plainly: Jak Biochemical HTRF Assay (JAK2). Conditions: [ATP] 8.5 μM. How it is done:
as §1
The ability of compounds to inhibit the activity of JAK1, JAK2, JAK3, and Tyk2 was measured using a recombinant purified GST-tagged catalytic domain for each enzyme (Invitrogen JAK1 #M4290, JAK2 #M4290, JAK3 #M4290, Tyk2 #M4290) in an HTRF format biochemical assay. […] The basic assay protocol is as follows: First, 250 nL of diluted compounds in DMSO were dispensed into the wells of a dry 384-well Black plate (Greiner #781076) using a Labcyte Echo 555 acoustic dispenser. Subsequent reagent additions employed an Agilent Bravo. […] After equilibration, 2 μL of 10×ATP in 1× assay buffer was added to initiate the kinase reaction and the plates were shaken and then incubated at room temperature for 120 minutes. […] Plates were shaken and centrifuged and then incubated 60 minutes at room temperature and then read on a Perkin Elmer Envision (λex=337 nm, λem=665 and 615 nm, TRF delay time=20 μs). HTRF signal=10,000*665 nm reading/615 nm reading. After normalization to untreated controls, the percent inhibition of the HTRF signal at each compound concentration was calculated. The plot of percent inhibition versus the log of compound concentration was fit with a 4-parameter dose response equation to calculate IC50 values.
as §2
Examples of the instant invention were evaluated in JAK1 and JAK2 in vitro binding assays as described above.
On the technique in general: TR-FRET usually uses a lanthanide donor and a delayed reading to cut background.

Sequence of JAK2 (recombinant purified GST-tagged catalytic domain) (O60674 849-1124): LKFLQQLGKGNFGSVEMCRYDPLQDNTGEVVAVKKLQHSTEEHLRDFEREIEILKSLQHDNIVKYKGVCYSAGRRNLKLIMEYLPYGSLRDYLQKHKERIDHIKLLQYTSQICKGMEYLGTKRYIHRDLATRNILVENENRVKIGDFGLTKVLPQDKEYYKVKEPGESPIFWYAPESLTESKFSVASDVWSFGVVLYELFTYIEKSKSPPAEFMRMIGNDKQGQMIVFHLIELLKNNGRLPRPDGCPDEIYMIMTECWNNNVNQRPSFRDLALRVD
Sequence of JAK1 (recombinant purified GST-tagged catalytic domain) (P23458 875-1153): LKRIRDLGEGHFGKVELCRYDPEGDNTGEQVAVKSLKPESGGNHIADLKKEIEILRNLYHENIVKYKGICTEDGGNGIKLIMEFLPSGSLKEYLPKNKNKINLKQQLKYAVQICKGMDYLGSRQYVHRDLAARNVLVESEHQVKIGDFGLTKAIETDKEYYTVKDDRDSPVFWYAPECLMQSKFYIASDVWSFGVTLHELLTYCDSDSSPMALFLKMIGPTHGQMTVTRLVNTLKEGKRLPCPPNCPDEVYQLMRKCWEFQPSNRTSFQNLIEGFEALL

As to `Cc1cc(Nc2nn([C@]3(CC#N)CC[C@@H](C(=O)OC(C)(C)C)OC3)c3cc[nH]c(=O)c23)ccc1C(=O)N1CCSC1C` (single isomer, unassigned) [Example 5-156, (2S,5S)-tert-butyl 5-(cyanomethyl)-5-(3-((3-methyl-4-((S or R)-2-methylthiazolidine-3-carbonyl)phenyl)amino)-4-oxo-4,5-dihydro-1H-pyrazolo[4,3-c]pyridin-1-yl)tetrahydro-2H-pyran-2-carboxylate], the IC50 worked out at 170 pM in experiment [1] and 300 pM in experiment [2].

`CC(C)CN1Cc2cc(Nc3nn(C4(CC#N)CCN(C(=O)OC(C)(C)C)CC4)c4cc[nH]c(=O)c34)ccc2S1(=O)=O` [Example 5-67]: the IC50 in experiment [1] is 470 pM; in experiment [2], 520 pM.

Turning to `CN(C)S(=O)(=O)c1ccc(Nc2nn(C3(CC#N)CCN(C(=O)OC4CCSCC4)CC3)c3cc[nH]c(=O)c23)cc1` [Example 11-4, tetrahydro-2H-thiopyran-4-yl 4-(cyanomethyl)-4-(3-((4-(N,N-dimethylsulfamoyl)phenyl)amino)-4-oxo-4,5-dihydro-1H-pyrazolo[4,3-c]pyridin-1-yl)piperidine-1-carboxylate], the IC50 came out at 270 pM in experiment [1] and 1450 pM in experiment [2].

As for `CN(C)S(=O)(=O)c1ccc(Nc2nn(C3(CC#N)CCN(Cc4ncco4)CC3)c3cc[nH]c(=O)c23)cc1` [Example 8-12, 4-({1-[4-(cyanomethyl)-1-(1,3-oxazol-2-ylmethyl)piperidin-4-yl]-4-oxo-4,5-dihydro-1H-pyrazolo[4,3-c]pyridin-3-yl}amino)-N,N-dimethylbenzenesulfonamide], the IC50 came to 260 pM in experiment [1] and 990 pM in experiment [2].

Take `CCN(C)S(=O)(=O)c1ccc(Nc2nn([C@]3(CC#N)CC[C@@H](C(=O)OC(C)(C)C)OC3)c3cc[nH]c(=O)c23)cc1` [Example 5-92, (2S,5S)-tert-butyl 5-(cyanomethyl)-5-(3-((4-(N-ethyl-N-methylsulfamoyl)phenyl)amino)-4-oxo-4,5-dihydro-1H-pyrazolo[4,3-c]pyridin-1-yl)tetrahydro-2H-pyran-2-carboxylate]: the IC50 in experiment [1] worked out at 90 pM; in experiment [2], 130 pM.

As to `COC(=O)N1CCC(CC#N)(n2nc(Nc3ccc(C(F)(F)F)cc3)c3c(=O)[nH]ccc32)CC1` [Example 5-147, methyl 4-(cyanomethyl)-4-(4-oxo-3-((4-(trifluoromethyl)phenyl)amino)-4,5-dihydro-1H-pyrazolo[4,3-c]pyridin-1-yl)piperidine-1-carboxylate], the values for the concentration for half-maximal inhibition (IC50) in experiment [1] and in experiment [2] were 320 pM and 2950 pM, respectively.

For the molecule `CC(C)(C)OC(=O)N1CC(CC#N)(n2nc(Nc3ccc(F)cc3)c3c(=O)[nH]ccc32)C1` [Example 4-3, tert-butyl 3-(cyanomethyl)-3-(3-((4-fluorophenyl)amino)-4-oxo-4,5-dihydro-1H-pyrazolo[4,3-c]pyridin-1-yl)azetidine-1-carboxylate], the IC50 amounted to 2640 pM in experiment [1] and 36000 pM in experiment [2].

For the molecule `CC(C)(C)OC(=O)[C@@H]1CC[C@@](CC#N)(n2nc(Nc3ccc4c(c3)CC(C)(C)C4(O)C(F)(F)F)c3c(=O)[nH]ccc32)CO1` (single isomer, unassigned) [Example 5-165, (2S,5S)-tert-butyl 5-(cyanomethyl)-5-(3-(((S or R)-1-hydroxy-2,2-dimethyl-1-(trifluoromethyl)-2,3-dihydro-1H-inden-5-yl)amino)-4-oxo-4,5-dihydro-1H-pyrazolo[4,3-c]pyridin-1-yl)tetrahydro-2H-pyran-2-carboxylate], the IC50 was 460 pM in experiment [1] and 1000 pM in experiment [2].

For `CN(C)S(=O)(=O)c1ccc(Nc2nn(C3(CC#N)CCN(Cc4ccccc4F)CC3)c3cc[nH]c(=O)c23)cc1` [Example 8-9, 4-({1-[4-(cyanomethyl)-1-(2-fluorobenzyl)piperidin-4-yl]-4-oxo-4,5-dihydro-1H-pyrazolo[4,3-c]pyridin-3-yl}amino)-N,N-dimethylbenzenesulfonamide], the concentration for half-maximal inhibition (IC50) in experiment [1] worked out at 190 pM; in experiment [2] it was 280 pM.

Take `Cc1cc(Nc2nn([C@]3(CC#N)CC[C@@H](C(=O)OC(C)(C)C)OC3)c3cc[nH]c(=O)c23)ccc1C(=O)N1CC(C)OC(C)C1` (single isomer, unassigned) [Example 20-12, (2S,5S)-tert-butyl 5-(cyanomethyl)-5-(3-((4-((2S,6S or 2R,6R)-2,6-dimethylmorpholine-4-carbonyl)-3-methylphenyl)amino)-4-oxo-4,5-dihydro-1H-pyrazolo[4,3-c]pyridin-1-yl)tetrahydro-2H-pyran-2-carboxylate]: the IC50 in experiment [1] worked out at 250 pM; in experiment [2] it was 450 pM.

On to `N#CC[C@@]1(n2nc(Nc3ccc(C4(C(F)(F)F)CC4)cc3)c3c(=O)[nH]ccc32)CCCOC1` [Example 5-224, (S)-2-(3-(4-oxo-3-((4-(1-(trifluoromethyl)cyclopropyl)phenyl)amino)-4,5-dihydro-1H-pyrazolo[4,3-c]pyridin-1-yl)tetrahydro-2H-pyran-3-yl)acetonitrile], for which the concentration for half-maximal inhibition (IC50) in experiment [1] came to 360 pM; in experiment [2] it was 3000 pM.

Regarding `CC(C)NC(C)(C)c1ccc(Nc2nn([C@@]3(CC#N)CCN(C(=O)OC(C)(C)C)C[C@H]3F)c3cc[nH]c(=O)c23)cc1` [Example 5-273, tert-butyl (3R,4R)-4-(cyanomethyl)-3-fluoro-4-{3-[(4-{1-methyl-1-[(1-methylethyl)amino]ethyl}phenyl)amino]-4-oxo-4,5-dihydro-1H-pyrazolo[4,3-c]pyridin-1-yl}piperidine-1-carboxylate], the half-maximal inhibitory concentration (IC50) in experiment [1] was 170 pM; in experiment [2] it was 140 pM.

Take `CC(C)(C)N1Cc2cc(Nc3nn([C@]4(CC#N)CC[C@@H](N5CC(F)C5)CC4)c4cc[nH]c(=O)c34)ccc2S1(=O)=O` [Example 18-35]: the IC50 in experiment [1] and in experiment [2] was 210 pM each time.

Take `CN(C)S(=O)(=O)c1ccc(Nc2nn([C@]3(CC#N)CCCOC3)c3cc[nH]c(=O)c23)cc1` [Example 5-28, (S)-4-((1-(3-(cyanomethyl)tetrahydro-2H-pyran-3-yl)-4-oxo-4,5-dihydro-1H-pyrazolo[4,3-c]pyridin-3-yl)amino)-N,N-dimethyl benzenesulfonamide]: the IC50 stood at 130 pM in experiment [1] and 290 pM in experiment [2].

Regarding `N#CC[C@@]1(n2nc(Nc3ccc(S(=O)(=O)C4CCCCC4)cc3)c3c(=O)[nH]ccc32)CCCOC1` [Example 5-193, [(3S)-3-(3-{[4-(cyclohexylsulfonyl)phenyl]amino}-4-oxo-4,5-dihydro-1H-pyrazolo[4,3-c]pyridin-1-yl)tetrahydro-2H-pyran-3-yl]acetonitrile], the half-maximal inhibitory concentration (IC50) turned out to be 420 pM in experiment [1] and 660 pM in experiment [2].

As to `CC(C)(C)N1Cc2cc(Nc3nn([C@@]4(CC#N)CCOC[C@H]4F)c4cc[nH]c(=O)c34)ccc2C1=O` (single isomer, unassigned) [Example 5-260, 2-((3S,4S or 3R,4R)-4-(3-(2-tert-butyl-1-oxoisoindolin-5-ylamino)-4-oxo-4,5-dihydropyrazolo[4,3-c]pyridin-1-yl)-3-fluoro-tetrahydro-2H-pyran-4-yl)acetonitrile], the IC50 in experiment [1] turned out to be 260 pM.

For `CC(C)(C)N1Cc2cc(Nc3nn([C@]4(CC#N)CCOC[C@@H]4F)c4cc[nH]c(=O)c34)ccc2C1=O` (single isomer, unassigned) [Example 5-259, 2-((3R,4R or 3S,4S)-4-(3-((2-(tert-butyl)-1-oxoisoindolin-5-yl)amino)-4-oxo-4,5-dihydro-1H-pyrazolo[4,3-c]pyridin-1-yl)-3-fluorotetrahydro-2H-pyran-4-yl)acetonitrile], in experiment [1], the IC50 is 40 pM.
